Laboratory results taken from patent US9453062B2, “Glucose dependent insulinotropic polypeptide analogs, pharmaceutical compositions and use thereof” (Beijing Hanmi Pharmaceutical Co., Ltd., priority 2011, dated 2016).
One block for each compound: values may come before it. *1 amine or outer side, *2 acyl side, *3 side chain or, on linkers, in order; H or OH if unused. Where a SMILES comes first, the peptide text is derived from it. Bridges are numbered along the chain shown (N, C = ends). Side-chain parts run from the residue outwards. [ ]: non-standard residue; d: D form. The star is where a group is joined. γGlu = O=C(O)[C@H](CCC(=O)[*:2])N[*:1]; Palmitoyl = CCCCCCCCCCCCCCCC(=O)*; Aib = CC(C)(N)C(=O)O

Key:
hGLP-1R = biological target: T1, hGLP-1R (Homo sapiens, UniProt P43220); assay: hGLP-1R-mediated cAMP induction assay in CHO cell line; format: cell-based; conditions: Table 3; for GLP-1 Receptor Relative Potency: against native GLP-1; for EC50: CHO hGLP1R cells;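 on all read-outs here: CHO cells expressing human GLP-1R, treated 30 min at 37 °C, intracellular cAMP measured by competitive fluorescent immunoassay and converted via a cAMP standard curve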
T1 construct: expressed in transfected cells; host or cells: CHO

hGIPR = biological target: T2, hGIPR (Homo sapiens, UniProt P48546); assay: hGIPR-mediated cAMP induction assay in CHO cell line; format: cell-based; conditions: Table 3; for GIP Receptor Relative Potency: against native GIP; for EC50: CHO hGIPR cells
T2 construct: expressed in transfected cells; host or cells: CHO
T2 sequence (P48546 22-466): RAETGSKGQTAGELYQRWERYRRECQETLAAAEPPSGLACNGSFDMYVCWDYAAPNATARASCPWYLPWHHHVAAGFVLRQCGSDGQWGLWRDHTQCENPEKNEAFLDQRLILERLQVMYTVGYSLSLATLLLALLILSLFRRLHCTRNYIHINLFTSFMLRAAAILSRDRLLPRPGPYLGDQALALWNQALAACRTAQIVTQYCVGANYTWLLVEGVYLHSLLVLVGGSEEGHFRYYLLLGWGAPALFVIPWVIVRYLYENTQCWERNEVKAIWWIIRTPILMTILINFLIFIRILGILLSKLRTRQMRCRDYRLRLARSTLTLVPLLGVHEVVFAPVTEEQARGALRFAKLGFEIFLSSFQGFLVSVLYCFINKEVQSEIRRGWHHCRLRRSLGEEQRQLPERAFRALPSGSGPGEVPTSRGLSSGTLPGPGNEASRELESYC

T1 sequence (P43220 24-463): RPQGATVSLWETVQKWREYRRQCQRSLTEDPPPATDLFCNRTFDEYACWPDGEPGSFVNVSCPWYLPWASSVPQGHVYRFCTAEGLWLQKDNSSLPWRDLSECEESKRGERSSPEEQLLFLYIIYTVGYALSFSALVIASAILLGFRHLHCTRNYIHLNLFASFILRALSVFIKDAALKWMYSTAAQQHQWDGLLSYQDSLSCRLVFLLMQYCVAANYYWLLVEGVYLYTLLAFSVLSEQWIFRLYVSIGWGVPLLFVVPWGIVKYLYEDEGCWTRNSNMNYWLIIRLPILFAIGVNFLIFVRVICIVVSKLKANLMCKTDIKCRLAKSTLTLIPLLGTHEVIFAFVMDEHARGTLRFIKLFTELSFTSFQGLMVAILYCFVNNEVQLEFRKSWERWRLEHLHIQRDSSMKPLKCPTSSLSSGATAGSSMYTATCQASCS

GLP-1 Receptor Relative Potency (hGLP-1R): 77.7
GIP Receptor Relative Potency (hGIPR): 8.3
Structure (SMILES): CC[C@H](C)[C@H](NC(=O)[C@H](Cc1ccccc1)NC(=O)[C@H](CCC(=O)O)NC(=O)[C@H](CCCNC(=N)N)NC(=O)[C@@H](NC(=O)[C@H](C)NC(=O)[C@H](CCC(=O)O)NC(=O)[C@H](CCCCN)NC(=O)[C@H](CCC(=O)O)NC(=O)[C@H](CCSC)NC(=O)[C@H](Cc1ccc(O)cc1)NC(=O)[C@@H](NC(=O)[C@H](CO)NC(=O)[C@H](Cc1ccc(O)cc1)NC(=O)[C@H](CC(=O)O)NC(=O)[C@H](CO)NC(=O)[C@@H](NC(=O)[C@H](Cc1ccccc1)NC(=O)[C@@H](NC(=O)CNC(=O)[C@H](CCC(=O)O)NC(=O)C(C)(C)NC(=O)[C@@H](N)Cc1ccc(O)cc1)[C@@H](C)O)[C@@H](C)O)[C@@H](C)CC)C(C)C)C(=O)N[C@@H](C)C(=O)N[C@@H](Cc1c[nH]c2ccccc12)C(=O)N[C@@H](CC(C)C)C(=O)N[C@H](C(=O)N[C@@H](CCCCN)C(=O)NCC(=O)N[C@@H](CCCNC(=N)N)C(=O)N[C@@H](CCCNC(=N)N)C(=O)N[C@@H](CCCNC(=N)N)C(=O)N[C@@H](CCCNC(=N)N)C(=O)N[C@@H](CCCNC(=N)N)C(=O)N[C@@H](CCCNC(=N)N)C(N)=O)C(C)C [Compound 075] (H-Y[Aib]EGTFTSDYSIYMEKEAVREFIAWLVKGRRRRRR-NH2; N-terminus assumed)

Structure (SMILES): CC[C@H](C)[C@H](NC(=O)[C@H](Cc1ccccc1)NC(=O)[C@H](CCC(=O)O)NC(=O)[C@H](CCCNC(=N)N)NC(=O)[C@@H](NC(=O)[C@H](C)NC(=O)[C@H](CCC(=O)O)NC(=O)[C@@H]1CCCCNC(=O)CC[C@H](NC(=O)[C@H](CO)NC(=O)[C@H](Cc2ccc(O)cc2)NC(=O)[C@H](CC(=O)O)NC(=O)[C@H](CO)NC(=O)[C@@H](NC(=O)[C@H](Cc2ccccc2)NC(=O)[C@@H](NC(=O)CNC(=O)[C@H](CCC(=O)O)NC(=O)C(C)(C)NC(=O)[C@@H](N)Cc2ccc(O)cc2)[C@@H](C)O)[C@@H](C)O)C(=O)N[C@@H](Cc2ccc(O)cc2)C(=O)N[C@@H](CCSC)C(=O)N[C@@H](CCC(=O)O)C(=O)N1)C(C)C)C(=O)N[C@@H](C)C(=O)N[C@@H](Cc1c[nH]c2ccccc12)C(=O)N[C@@H](CC(C)C)C(=O)N[C@H](C(=O)N[C@@H](CCCCN)C(=O)NCC(=O)NCC(=O)N1CCC[C@H]1C(=O)N[C@@H](CO)C(=O)N[C@@H](CO)C(=O)NCC(=O)N[C@@H](C)C(=O)N1CCC[C@H]1C(=O)N1CCC[C@H]1C(=O)N1CCC[C@H]1C(=O)N[C@@H](CO)C(N)=O)C(C)C [Compound 081] (H-Y[Aib]EGTFTSDYSEYMEKEAVREFIAWLVKGGPSSGAPPPS-NH2; lactam 12-16)
EC50 (hGLP-1R): 0.77 nM
GLP-1 Receptor Relative Potency (hGLP-1R): 124.3
EC50 (hGIPR): 0.044 nM
GIP Receptor Relative Potency (hGIPR): 250

GLP-1 Receptor Relative Potency (hGLP-1R): 22.2
GIP Receptor Relative Potency (hGIPR): 8.8
Structure (SMILES): CCCCCCCCCCCCCCCC(=O)NCCCC[C@H](NC(=O)CNC(=O)[C@H](CCCCN)NC(=O)[C@@H](NC(=O)[C@H](CC(C)C)NC(=O)[C@H](Cc1c[nH]c2ccccc12)NC(=O)[C@H](C)NC(=O)[C@@H](NC(=O)[C@H](Cc1ccccc1)NC(=O)[C@H](CCC(=O)O)NC(=O)[C@H](CCCNC(=N)N)NC(=O)[C@@H](NC(=O)[C@H](C)NC(=O)[C@H](CCC(=O)O)NC(=O)[C@@H]1CCCCNC(=O)CC[C@H](NC(=O)[C@H](CO)NC(=O)[C@H](Cc2ccc(O)cc2)NC(=O)[C@H](CC(=O)O)NC(=O)[C@H](CO)NC(=O)[C@@H](NC(=O)[C@H](Cc2ccccc2)NC(=O)[C@@H](NC(=O)CNC(=O)[C@H](CCC(=O)O)NC(=O)C(C)(C)NC(=O)[C@@H](N)Cc2ccc(O)cc2)[C@@H](C)O)[C@@H](C)O)C(=O)N[C@@H](Cc2ccc(O)cc2)C(=O)N[C@@H](CCSC)C(=O)N[C@@H](CCC(=O)O)C(=O)N1)C(C)C)[C@@H](C)CC)C(C)C)C(N)=O [Compound 084] (H-Y[Aib]EGTFTSDYSEYMEKEAVREFIAWLVKGK(Palmitoyl)-NH2; lactam 12-16)

Structure (SMILES): CCCCCCCCCCCCCCCC(=O)N[C@@H](CCC(=O)NCCCC[C@H](NC(=O)[C@H](CO)NC(=O)[C@@H]1CCCN1C(=O)[C@@H]1CCCN1C(=O)[C@@H]1CCCN1C(=O)[C@H](C)NC(=O)CNC(=O)[C@H](CO)NC(=O)[C@H](CO)NC(=O)[C@@H]1CCCN1C(=O)CNC(=O)CNC(=O)[C@H](CCCCN)NC(=O)[C@@H](NC(=O)[C@H](CC(C)C)NC(=O)[C@H](Cc1c[nH]c2ccccc12)NC(=O)[C@H](C)NC(=O)[C@@H](NC(=O)[C@H](Cc1ccccc1)NC(=O)[C@H](CCC(=O)O)NC(=O)[C@H](CCCNC(=N)N)NC(=O)[C@@H](NC(=O)[C@H](C)NC(=O)[C@H](CCC(=O)O)NC(=O)[C@H](CCCCN)NC(=O)[C@H](CCC(=O)O)NC(=O)[C@H](CCSC)NC(=O)[C@H](Cc1ccc(O)cc1)NC(=O)[C@@H](NC(=O)[C@H](CO)NC(=O)[C@H](Cc1ccc(O)cc1)NC(=O)[C@H](CC(=O)O)NC(=O)[C@H](CO)NC(=O)[C@@H](NC(=O)[C@H](Cc1ccccc1)NC(=O)[C@@H](NC(=O)CNC(=O)[C@H](CCC(=O)O)NC(=O)C(C)(C)NC(=O)[C@@H](N)Cc1ccc(O)cc1)[C@@H](C)O)[C@@H](C)O)[C@@H](C)CC)C(C)C)[C@@H](C)CC)C(C)C)C(N)=O)C(=O)O [Compound 090]
EC50 (hGLP-1R): 0.188 nM
GLP-1 Receptor Relative Potency (hGLP-1R): 568.6
EC50 (hGIPR): 0.009 nM
GIP Receptor Relative Potency (hGIPR): 1311

Structure (SMILES): CCCCCCCCCCCCCCCC(=O)N[C@@H](CCC(=O)N[C@@H](CCC(=O)NCCCC[C@H](NC(=O)[C@H](CO)NC(=O)[C@@H]1CCCN1C(=O)[C@@H]1CCCN1C(=O)[C@@H]1CCCN1C(=O)[C@H](C)NC(=O)CNC(=O)[C@H](CO)NC(=O)[C@H](CO)NC(=O)[C@@H]1CCCN1C(=O)CNC(=O)CNC(=O)[C@H](CCCCN)NC(=O)[C@@H](NC(=O)[C@H](CC(C)C)NC(=O)[C@H](Cc1c[nH]c2ccccc12)NC(=O)[C@H](C)NC(=O)[C@@H](NC(=O)[C@H](Cc1ccccc1)NC(=O)[C@H](CCC(=O)O)NC(=O)[C@H](CCCNC(=N)N)NC(=O)[C@@H](NC(=O)[C@H](C)NC(=O)[C@H](CCC(=O)O)NC(=O)[C@H](CCCCN)NC(=O)[C@H](CCC(=O)O)NC(=O)[C@H](CCSC)NC(=O)[C@H](Cc1ccc(O)cc1)NC(=O)[C@@H](NC(=O)[C@H](CO)NC(=O)[C@H](Cc1ccc(O)cc1)NC(=O)[C@H](CC(=O)O)NC(=O)[C@H](CO)NC(=O)[C@@H](NC(=O)[C@H](Cc1ccccc1)NC(=O)[C@@H](NC(=O)CNC(=O)[C@H](CCC(=O)O)NC(=O)C(C)(C)NC(=O)[C@@H](N)Cc1ccc(O)cc1)[C@@H](C)O)[C@@H](C)O)[C@@H](C)CC)C(C)C)[C@@H](C)CC)C(C)C)C(N)=O)C(=O)O)C(=O)O [Compound 091]
EC50 (hGLP-1R): 0.116 nM
GLP-1 Receptor Relative Potency (hGLP-1R): 921.5
EC50 (hGIPR): 0.041 nM
GIP Receptor Relative Potency (hGIPR): 287.8

Structure (SMILES): CCCCCCCCCCCCCCCC(=O)N[C@@H](CCC(=O)NCCCC[C@H](NC(=O)[C@@H](NC(=O)[C@H](C)NC(=O)[C@H](CCC(=O)O)NC(=O)[C@H](CCCCN)NC(=O)[C@H](CCC(=O)O)NC(=O)[C@H](CCSC)NC(=O)[C@H](Cc1ccc(O)cc1)NC(=O)[C@@H](NC(=O)[C@H](CO)NC(=O)[C@H](Cc1ccc(O)cc1)NC(=O)[C@H](CC(=O)O)NC(=O)[C@H](CO)NC(=O)[C@@H](NC(=O)[C@H](Cc1ccccc1)NC(=O)[C@@H](NC(=O)CNC(=O)[C@H](CCC(=O)O)NC(=O)C(C)(C)NC(=O)[C@@H](N)Cc1ccc(O)cc1)[C@@H](C)O)[C@@H](C)O)[C@@H](C)CC)C(C)C)C(=O)N[C@@H](CCC(=O)O)C(=O)N[C@@H](Cc1ccccc1)C(=O)N[C@H](C(=O)N[C@@H](C)C(=O)N[C@@H](Cc1c[nH]c2ccccc12)C(=O)N[C@@H](CC(C)C)C(=O)N[C@H](C(=O)N[C@@H](CCCCN)C(=O)NCC(=O)NCC(=O)N1CCC[C@H]1C(=O)N[C@@H](CO)C(=O)N[C@@H](CO)C(=O)NCC(=O)N[C@@H](C)C(=O)N1CCC[C@H]1C(=O)N1CCC[C@H]1C(=O)N1CCC[C@H]1C(=O)N[C@@H](CO)C(N)=O)C(C)C)[C@@H](C)CC)C(=O)O [Compound 092] (H-Y[Aib]EGTFTSDYSIYMEKEAVK([γGlu-Palmitoyl])EFIAWLVKGGPSSGAPPPS-NH2)
EC50 (hGLP-1R): 0.39 nM
GLP-1 Receptor Relative Potency (hGLP-1R): 256.4
EC50 (hGIPR): 0.15 nM
GIP Receptor Relative Potency (hGIPR): 26.6

Structure (SMILES): CCCCCCCCCCCCCCCC(=O)N[C@@H](CCC(=O)N[C@@H](CCC(=O)NCCCC[C@H](NC(=O)[C@@H](NC(=O)[C@H](C)NC(=O)[C@H](CCC(=O)O)NC(=O)[C@H](CCCCN)NC(=O)[C@H](CCC(=O)O)NC(=O)[C@H](CCSC)NC(=O)[C@H](Cc1ccc(O)cc1)NC(=O)[C@@H](NC(=O)[C@H](CO)NC(=O)[C@H](Cc1ccc(O)cc1)NC(=O)[C@H](CC(=O)O)NC(=O)[C@H](CO)NC(=O)[C@@H](NC(=O)[C@H](Cc1ccccc1)NC(=O)[C@@H](NC(=O)CNC(=O)[C@H](CCC(=O)O)NC(=O)C(C)(C)NC(=O)[C@@H](N)Cc1ccc(O)cc1)[C@@H](C)O)[C@@H](C)O)[C@@H](C)CC)C(C)C)C(=O)N[C@@H](CCC(=O)O)C(=O)N[C@@H](Cc1ccccc1)C(=O)N[C@H](C(=O)N[C@@H](C)C(=O)N[C@@H](Cc1c[nH]c2ccccc12)C(=O)N[C@@H](CC(C)C)C(=O)N[C@H](C(=O)N[C@@H](CCCCN)C(=O)NCC(=O)NCC(=O)N1CCC[C@H]1C(=O)N[C@@H](CO)C(=O)N[C@@H](CO)C(=O)NCC(=O)N[C@@H](C)C(=O)N1CCC[C@H]1C(=O)N1CCC[C@H]1C(=O)N1CCC[C@H]1C(=O)N[C@@H](CO)C(N)=O)C(C)C)[C@@H](C)CC)C(=O)O)C(=O)O [Compound 093] (H-Y[Aib]EGTFTSDYSIYMEKEAVK([γGlu-γGlu-Palmitoyl])EFIAWLVKGGPSSGAPPPS-NH2)
EC50 (hGLP-1R): 0.43 nM
GLP-1 Receptor Relative Potency (hGLP-1R): 232.5
EC50 (hGIPR): 0.03 nM
GIP Receptor Relative Potency (hGIPR): 133.3
